Experimental data reported in ChEMBL document CHEMBL1152100, “Enzymatic synthesis of sialyl Lex and derivatives based on a recombinant fucosyltransferase” (Bioorg Med Chem Lett, 1991).

biological target: T1, Alpha-(1,3)-fucosyltransferase 10 (Homo sapiens) (UniProt Q6P4F1); test: (§1) Acceptor substrate specificity toward Fucosyltransferase for the galactosides of GlcNAc with beta 1,3 or beta 1,4-linkages
T1 sequence (whole entry): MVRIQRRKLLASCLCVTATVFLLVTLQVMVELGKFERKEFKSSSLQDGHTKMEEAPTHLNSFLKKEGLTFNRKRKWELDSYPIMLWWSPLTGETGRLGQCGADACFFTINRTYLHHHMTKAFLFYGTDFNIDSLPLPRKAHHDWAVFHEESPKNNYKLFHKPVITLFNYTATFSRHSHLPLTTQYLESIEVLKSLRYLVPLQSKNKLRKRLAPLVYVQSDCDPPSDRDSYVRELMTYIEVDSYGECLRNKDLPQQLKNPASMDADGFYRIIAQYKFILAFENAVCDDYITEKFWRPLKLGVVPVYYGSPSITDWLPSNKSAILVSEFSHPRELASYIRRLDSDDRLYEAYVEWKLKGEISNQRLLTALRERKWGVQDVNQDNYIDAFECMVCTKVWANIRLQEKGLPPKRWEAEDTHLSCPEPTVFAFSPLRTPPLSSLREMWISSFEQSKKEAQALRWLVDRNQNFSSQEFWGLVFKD

Question: `CC(=O)N[C@@H]1[C@H](O[C@H]2[C@H](O)[C@H](NC(C)=O)C(O)O[C@H]2CO)O[C@@H](CO)[C@@H](O)[C@@H]1O` (stereo not given in full) was tested. Which Relative activity did it give?
Answer: 23

Question: Which Relative activity does the source give for `CC(=O)N[C@H]1[C@@H](O[C@@H]2O[C@@H](CO)[C@H](O)[C@H](O)[C@@H]2O)[C@H](O)[C@H](CO)O[C@H]1O` here?
Answer: 580

Question: Which Relative activity does the source give for `CC(=O)N[C@H]1C(O)O[C@H](CO)[C@H](O)[C@@H]1O` (stereo not given in full) here?
Answer: 4

Question: How did the Relative activity turn out when `OC[C@H]1S[C@H](O)[C@H](O)[C@@H](O)[C@@H]1O` was run?
Answer: 7

Question: `OC[C@H]1OC=C[C@@H](O)[C@@H]1O` was tested. Which Relative activity did it give?
Answer: 7

Question: How did the Relative activity turn out when `CC(=O)N[C@@H]1[C@@H](O)[C@H](O[C@@H]2O[C@H](CO)[C@H](O)[C@H](O)[C@H]2O)[C@@H](CO)O[C@H]1O` was run?
Answer: 27

Question: For `OC[C@H]1NC[C@H](O)[C@@H](O)[C@@H]1O`, which Relative activity is on record?
Answer: 5

Question: Which Relative activity does the source give for `C=CCO[C@@H]1O[C@@H](CO)[C@@H](O)[C@H](O)[C@@H]1O` here?
Answer: < 1

Question: Which Relative activity does the source give for `OC[C@H]1OC(O)[C@H](O)[C@@H](O)[C@@H]1O` (stereo not given in full) here?
Answer: 5

Question: `CC(=O)N[C@H]1C(O)O[C@H](CO)[C@@H](O)[C@@H]1O` (stereo not given in full) was tested. Which Relative activity did it give?
Answer: 3

Question: `OC[C@@H]1OC(O)[C@@H](O)[C@H](O)[C@H]1O` (stereo not given in full) was tested. Which Relative activity did it give?
Answer: 3

Question: `CC(=O)N[C@@H]1[C@H](OC[C@@H]2O[C@@H](O[C@H]3[C@H](O)[C@H](O)C(O)O[C@H]3CO)[C@@H](O)[C@@H](O)[C@H]2O)O[C@@H](CO)[C@@H](O)[C@@H]1O` (stereo not given in full) was tested. Which Relative activity did it give?
Answer: 13

Question: With `O=C[C@H](O)[C@@H](O)[C@@H](O)[C@H](O)CO` as the compound, how does the Relative activity read?
Answer: 6

Question: For `C[C@@H]1O[C@@H](O[C@@H]2[C@H](O[C@H]3[C@H](O)[C@H](O)[C@@H](O)O[C@H]3CO)O[C@@H](CO)[C@H](O)[C@@H]2O)[C@@H](O)[C@@H](O)[C@@H]1O`, which Relative activity is on record?
Answer: 250

Question: Which Relative activity does the source give for `OC[C@@H]1OC(O)[C@@H](O)[C@H](O)[C@@H]1O` (stereo not given in full) here?
Answer: 7

Question: For `OC[C@@H]1O[C@@H](O[C@H]2[C@H](O)[C@H](O)[C@H](O)S[C@H]2CO)[C@@H](O)[C@@H](O)[C@H]1O`, which Relative activity is on record?
Answer: 310

Question: `OC[C@H]1OC=C[C@@H](O)[C@H]1O` was tested. Which Relative activity did it give?
Answer: 2

Question: `CC(=O)N[C@H]1[C@H]([C@H](O)[C@H](O)CO)O[C@@](O[C@@H]2[C@H](O)[C@H](O[C@H]3[C@H](O)[C@H](NC(C)=O)C(O)O[C@H]3CO)O[C@@H](CO)[C@@H]2O)(C(=O)O)C[C@H]1O` (stereo not given in full) was tested. Which Relative activity did it give?
Answer: 60

biological target: Alpha-(1,3)-fucosyltransferase 10 (Homo sapiens) (UniProt Q6P4F1); test: as §1

Question: Which Relative activity does the source give for LACTOSE, ANHYDROUS here?
Answer: 120

biological target: T1, Alpha-(1,3)-fucosyltransferase 10 (Homo sapiens); test: Compound was evaluated for acceptor substrate specificity toward Fucosyltransferase for the galactosides of GlcNAc with beta 1,3 or beta 1,4-linkages when applied 2 uM of GDP-Fuc consumed per hr.

Question: For `CC(=O)N[C@@H]1[C@@H](O)[C@H](O[C@@H]2O[C@H](CO)[C@H](O)[C@H](O)[C@H]2O)[C@@H](CO)O[C@H]1O`, which Relative activity is on record?
Answer: 100
